In paper PMC11651181, “Discovery of 6α-Thiazolylcarboxamidonaltrexamine Derivative (NTZ) as a Potent and Central Nervous System Penetrant Opioid Receptor Modulator with Drug-like Properties for Potential Treatment of Opioid Use Disorder” (ACS Pharmacology & Translational Science, 2024):
“Also recorded” adds a separate entry of the source. Counter-ions that a name gives are not always drawn.

Assays:
μ opioid receptor (MOR) = target: T1, μ opioid receptor (MOR) (Mus musculus, UniProt P42866); experiment: Competitive radioligand binding assay, MOR
T1 construct: expressed in transfected cells; host or cells: CHO (mMOR-CHO), membrane preparation
Description: (§1) The competition binding assay was performed using monoclonal mouse opioid receptors expressed in CHO cell lines (monoclonal human δ opioid receptor was used for the DOR assay).
(§2) The bound radioligand was separated using a Brandel harvester. Specific binding to the MOR, KOR, and DOR was calculated by subtracting the binding observed in the presence of 5 μM naltrexone, U50488, and SNC80, respectively, from the binding in their absence. Relative affinity values (IC50) were determined by fitting displacement binding inhibition data to a nonlinear regression model using GraphPad Prism 8.0 (GraphPad Software, San Diego, CA). The % inhibition was calculated using the formula: % inhibition = 100% - [(binding with the tested compound - nonspecific binding)/specific binding] × 100%. The IC50 values were converted to Ki values using the Cheng-Prusoff equation: Ki = IC50/ [1 + ([L*]/KD)], where [L*] is the concentration of the radioligand and KD is the KD of the radioligand.[68]

δ opioid receptor (DOR) = target: T2, δ opioid receptor (DOR) (Homo sapiens, UniProt P41143); experiment: Competitive radioligand binding assay, DOR; conditions: for Selectivity δ/μ: ratio of Ki values
T2 construct: expressed in transfected cells; host or cells: CHO (hDOR-CHO), membrane preparation
Description: as §1, §2

κ opioid receptor (KOR) = target: T3, κ opioid receptor (KOR) (Mus musculus, UniProt P33534); experiment: Competitive radioligand binding assay, KOR; conditions: for Selectivity κ/μ: ratio of Ki values
T3 construct: expressed in transfected cells; host or cells: CHO (mKOR-CHO), membrane preparation
Description: as §1, §2

MOR [1] = target: T4, MOR (Mus musculus, UniProt P42866); experiment: MOR [35S]GTPγS functional assay; format: biochemical; conditions: for Emax: read-out: MOR [35S]GTPγS Binding %Emax of DAMGO, relative to 3 μM DAMGO, mean ± SEM
T4 construct: expressed in transfected cells; host or cells: CHO (MOR-CHO), membrane preparation
Description: (§3) The [^35S]GTPγS functional assay was used to assess the efficacy of compounds at the MOR, KOR, and DOR. In this assay, 10 μg of MOR-CHO/KOR-CHO/DOR-CHO membrane protein was incubated in 500 μL of TME with 100 mM NaCl, 20 μM GDP, 0.1 nM [^35S]GTPγS, and varying concentrations of the compound for 1.5 h in a 30 °C water bath. Protein concentration was adjusted using the Bradford protein assay. […] After incubation, bound radioactivity was separated by filtration through GF/B glass fiber filters and measured by liquid scintillation counting. All assays were performed in duplicate and repeated at least three times. Net stimulated [35S]GTPγS binding was calculated as agonist-stimulated minus basal binding.

Swiss Webster mice = experiment: Warm-water tail immersion assay, antagonism of morphine-induced antinociception; conditions: for Antagonism of morphine's antinociception, in words: single dose of 10 mg/kg s.c. in the presence of morphine (10 mg/kg), n = 6; for AD50 (95% CL) for counteracting morphine-induced antinociception: mice, s.c., given 5 min before morphine
KOR = target: T5, KOR (Mus musculus, UniProt P33534); experiment: KOR [35S]GTPγS functional assay; format: biochemical
T5 construct: expressed in transfected cells; host or cells: CHO (KOR-CHO), membrane preparation
Description: as §3

DOR = target: T6, DOR (Homo sapiens, UniProt P41143); experiment: DOR [35S]GTPγS functional assay; format: biochemical
T6 construct: expressed in transfected cells; host or cells: CHO (DOR-CHO), membrane preparation
Description: as §3

MOR [2] = target: T4, MOR; experiment: MOR calcium flux assay in Gαqi5-transfected mMOR-CHO cells; format: cell-based

Row | SMILES | Ki (μ opioid receptor (MOR)) | Ki (δ opioid receptor (DOR)) | Selectivity δ/μ (δ opioid receptor (DOR)) | Ki (κ opioid receptor (KOR)) | Selectivity κ/μ (κ opioid receptor (KOR)) | EC50 (MOR [1]) | Emax (MOR [1]) | Antagonism of morphine's antinociception, in words (Swiss Webster mice) | EC50 (KOR) | Emax (KOR; relative to 3 μM U50488H, mean ± SEM, read-out: KOR [35S]GTPγS binding % Emax of U50488H) | EC50 (DOR) | Emax (DOR; relative to 3 μM SNC80, mean ± SEM, read-out: DOR [35S]GTPγS binding % Emax of SNC80) | IC50 (MOR [2]) | Agonistic activity in increasing intracellular calcium, in words (MOR [2]; compared to full MOR agonist DAMGO) | AD50 (95% CL) for counteracting morphine-induced antinociception (Swiss Webster mice)
1 | O=C(Cc1ccns1)N[C@H]1CC[C@@]2(O)[C@H]3Cc4ccc(O)c5c4[C@@]2(CCN3CC2CC2)[C@H]1O5 [Compound 2, 17-Cyclopropylmethyl-3,14β-dihydroxy-4,5α-epoxy-6α-(5′-isothiazolylacetamido)-morphinan hydrochloride] | 0.55 ± 0.06 nM | 13.9 ± 1.62 nM | 25 | 1.49 ± 0.13 nM | 3 | 4.62 ± 0.44 nM | 18.2 ± 1.06% |  |  |  |  |  |  |  | 
2 | O=C(N[C@H]1CC[C@@]2(O)[C@H]3Cc4ccc(O)c5c4[C@@]2(CCN3CC2CC2)[C@H]1O5)c1cncs1 [Compound 3, 17-Cyclopropylmethyl-3,14β-dihydroxy-4,5α-epoxy-6α-(5′-thiazolylcarboxamido)-morphinan hydrochloride] | 0.35 ± 0.02 nM | 16.8 ± 3.88 nM | 48 | 0.97 ± 0.11 nM | 3 | 2.77 ± 0.51 nM | 15.9 ± 1.84% |  |  |  |  |  |  |  | 
3 | O=C(Cc1cncs1)N[C@H]1CC[C@@]2(O)[C@H]3Cc4ccc(O)c5c4[C@@]2(CCN3CC2CC2)[C@H]1O5 [Compound 4, 17-Cyclopropylmethyl-3,14β-dihydroxy-4,5α-epoxy-6α-(5′-thiazolylacetamido)-morphinan hydrochloride] | 0.57 ± 0.02 nM | 8.5 ± 0.56 nM | 15 | 2.08 ± 0.39 nM | 4 | 5.87 ± 1.26 nM | 17 ± 0.89% |  |  |  |  |  |  |  | 
4 | O=C(CCc1cncs1)N[C@H]1CC[C@@]2(O)[C@H]3Cc4ccc(O)c5c4[C@@]2(CCN3CC2CC2)[C@H]1O5 [Compound 5, 17-Cyclopropylmethyl-3,14β-dihydroxy-4,5α-epoxy-6α-[(3′-(thiazolyl-5′′-yl)propan-amido]morphinan hydrochloride] | 0.71 ± 0.08 nM | 11.6 ± 1.24 nM | 16 | 2.04 ± 0.38 nM | 3 | 2.76 ± 0.58 nM | 10.7 ± 1.02% |  |  |  |  |  |  |  | 
5 | O=C(Cc1nccs1)N[C@H]1CC[C@@]2(O)[C@H]3Cc4ccc(O)c5c4[C@@]2(CCN3CC2CC2)[C@H]1O5 [Compound 7, 17-Cyclopropylmethyl-3,14β-dihydroxy-4,5α-epoxy-6α-(2′-thiazolylacetamido)-morphinan hydrochloride] | 0.65 ± 0.05 nM | 1.3 ± 0.08 nM | 2 | 2.26 ± 0.5 nM | 3 | 3.87 ± 1.29 nM | 10.2 ± 0.61% | significantly antagonized |  |  |  |  |  |  | 
6 | O=C(CCc1nccs1)N[C@H]1CC[C@@]2(O)[C@H]3Cc4ccc(O)c5c4[C@@]2(CCN3CC2CC2)[C@H]1O5 [Compound 8, 17-Cyclopropylmethyl-3,14β-dihydroxy-4,5α-epoxy-6α-[(3′-(thiazolyl-2′′-yl)propan-amido]morphinan hydrochloride] | 0.45 ± 0.06 nM | 1.18 ± 0.06 nM | 3 | 2 ± 0.42 nM | 4 | 3.4 ± 0.6 nM | 13.4 ± 0.41% | significantly antagonized |  |  |  |  |  |  | 
7 | O=C(N[C@@H]1CC[C@@]2(O)[C@H]3Cc4ccc(O)c5c4[C@@]2(CCN3CC2CC2)[C@H]1O5)c1ccns1 [Compound 9, 17-Cyclopropylmethyl-3,14β-dihydroxy-4,5α-epoxy-6β-(5′-isothiazolylcarboxamido)-morphinan hydrochloride] | 0.32 ± 0.03 nM | 67.8 ± 7.17 nM |  | 1.22 ± 0.32 nM | 4 | 0.71 ± 0.14 nM | 9.66 ± 1.37% | significantly antagonized | 7.06 ± 0.18 nM | 49.9 ± 1.99% | 58.1 ± 10.3 nM | 44.4 ± 4.15% | 6.53 ± 2.28 nM | no apparent agonism; also recorded: none of them showed any significant agonistic activity | 4.77 (3.59–6.34) mg/kg
8 | O=C(Cc1ccns1)N[C@@H]1CC[C@@]2(O)[C@H]3Cc4ccc(O)c5c4[C@@]2(CCN3CC2CC2)[C@H]1O5 [Compound 10, 17-Cyclopropylmethyl-3,14β-dihydroxy-4,5α-epoxy-6β-(5′-isothiazolylacetamido)-morphinan hydrochloride] | 0.59 ± 0.09 nM | 34 ± 4.18 nM | 58 | 1.14 ± 0.05 nM | 2 | 1.16 ± 0.15 nM | 9.32 ± 0.67% | significantly antagonized |  |  |  |  |  |  | 13.12 (2.34–73.39) mg/kg
9 | O=C(N[C@@H]1CC[C@@]2(O)[C@H]3Cc4ccc(O)c5c4[C@@]2(CCN3CC2CC2)[C@H]1O5)c1cncs1 [Compound 11, 17-Cyclopropylmethyl-3,14β-dihydroxy-4,5α-epoxy-6β-(5′-thiazolylcarboxamido)-morphinan hydrochloride] | 0.53 ± 0.04 nM | 77.9 ± 16.1 nM | 147 | 1.41 ± 0.24 nM | 3 | 1.58 ± 0.44 nM | 13.7 ± 1.32% | significantly antagonized |  |  |  |  |  |  | 
10 | O=C(Cc1cncs1)N[C@@H]1CC[C@@]2(O)[C@H]3Cc4ccc(O)c5c4[C@@]2(CCN3CC2CC2)[C@H]1O5 [Compound 12, 17-Cyclopropylmethyl-3,14β-dihydroxy-4,5α-epoxy-6β-(5′-thiazolylacetamido)-morphinan hydrochloride] | 0.39 ± 0.04 nM | 17.5 ± 1.91 nM | 44 | 0.89 ± 0.05 nM | 2 | 1.24 ± 0.25 nM | 13 ± 0.76% |  |  |  |  |  |  |  | 
11 | O=C(CCc1cncs1)N[C@@H]1CC[C@@]2(O)[C@H]3Cc4ccc(O)c5c4[C@@]2(CCN3CC2CC2)[C@H]1O5 [Compound 13, 17-Cyclopropylmethyl-3,14β-dihydroxy-4,5α-epoxy-6β-[(3′-(thiazolyl-5′′-yl)propan-amido]morphinan hydrochloride] | 0.49 ± 0.07 nM | 31.5 ± 2.78 nM | 65 | 1.2 ± 0.25 nM | 2 | 1.39 ± 0.36 nM | 10.5 ± 0.92% |  |  |  |  |  |  |  | 
12 | O=C(Cc1nccs1)N[C@@H]1CC[C@@]2(O)[C@H]3Cc4ccc(O)c5c4[C@@]2(CCN3CC2CC2)[C@H]1O5 [Compound 15, 17-Cyclopropylmethyl-3,14β-dihydroxy-4,5α-epoxy-6β-(2′-thiazolylacetamido)-morphinan hydrochloride] | 0.35 ± 0.04 nM | 26.4 ± 2.65 nM | 76 | 1.89 ± 0.77 nM | 5 | 0.78 ± 0.18 nM | 11 ± 0.43% |  |  |  |  |  |  |  | 
13 | O=C(CCc1nccs1)N[C@@H]1CC[C@@]2(O)[C@H]3Cc4ccc(O)c5c4[C@@]2(CCN3CC2CC2)[C@H]1O5 [Compound 16, 17-Cyclopropylmethyl-3,14β-dihydroxy-4,5α-epoxy-6β-[(3′-(thiazolyl-2′′-yl)propan-amido]morphinan hydrochloride] | 0.35 ± 0.03 nM | 18.8 ± 3.26 nM | 54 | 0.67 ± 0.08 nM | 2 | 1.75 ± 0.46 nM | 12.1 ± 0.67% |  |  |  |  |  |  |  | 
